Consider 31 compounds from patent US9243281B2, “Neuroprotective chemicals and methods for identifying and using same” (Board of Regents of The University of Texas System, priority 2013, dated 2016).

For test [1], the system named is hippocampal neurogenesis (Dentate Gyrus). Kind of test: in vivo neurogenesis assay (BrdU+ cells in dentate gyrus). More on the design: species or system mice. Conditions: living mice; vehicle (DMSO) 7.3. In a few lines:
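Pools of ten compounds infused into the left ventricle of two adult mice per pool via cannula and mini-pump over one week, aimed at mid-nanomolar levels. Daily BrdU co-injected; brain sections stained for BrdU to count new dentate gyrus cells.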

Test [2] concerns the target T1, p70 (NAMPT) (Homo sapiens, UniProt P43490).
T1 construct: endogenous in cells; host or cells: H2122 lung cancer cells
In words: binding competition for photo-crosslinking of P7C3-S326 to p70 in H2122 cells. Conditions: 0.3 μM P7C3-S326 plus 5 μM competitor, p70 band intensity, P7C3-S326 alone compared with plus competitor, vehicle 1.0. The method, boiled down: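 H2122 cells were co-treated with 0.3 μM P7C3-S326 and 5 uM competing P7C3 analogs for 2 hours at 37° C, then UV-crosslinked at 306 nm for 15 minutes. Lysates were clicked to a fluorescent dye and run on SDS-PAGE. The p70 band was quantified relative to the DMSO control.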

In test [3] the target is T2, Human NAMPT (Homo sapiens, UniProt P43490).
T2 construct: made in house; host or cells: E. coli
In words: in vitro NAMPT coupled-enzyme assay (NADH at OD340 nm). As to conditions: relative reaction rate normalized by the control reaction run prior to compound addition; vehicle 0.98. Format: biochemical. The protocol: FIGS. 7A-7C. […] (FIG. 7A) P7C3-A20 was incubated at indicated concentrations in a reaction coupled with three enzymes; NAMPT, NMNAT, and ADH (Experimental Procedures). NAMPT activity was recorded for the indicated period of time at OD340 nm by measuring NADH appearance, leading to the indicated concentration-time plot. […] (FIG. 7B) Analysis of the activities of thirty P7C3 analogs was performed to assess their effects on NAMPT enzymatic activity. The reaction rate was calculated as the slope of the concentration-time curve. Relative reaction rate was normalized by the control reaction run prior to compound addition. Data represents the mean of experimental duplicates. Scatter graphs were plotted to compare the ability of compounds to activate NAMPT relative to their ability to compete away P7C3-S326 crosslinking (top scatter plot), ability to protect cells from doxorubicin-mediated toxicity (middle scatter plot), or ability to facilitate NAD restoration in doxorubicin-treated cells (bottom scatter plot). […] Data are expressed as mean±SD of duplicate independent assays.
The enzymatic activity of recombinant NAMPT was monitored in a coupled assay wherein nicotinamide conversion to NMN was followed by sequential production of NAD (via the NMNAT enzyme) and NADH (via alcohol dehydrogenase). To minimize variation, a control reaction was run in each assay prior to compound addition.
Briefly, NAMPT first converted nicotinamide to NMN, which was followed by sequential production of NAD via nicotinamide mononucleotide adenylyl-transferase (NMNAT). NAD was then reduced to NADH by alcohol dehydrogenase (Sigma) using alcohol as the substrate. The resulting NADH was monitored by OD340 nm. […] 10 mM stocks of P7C3 analogs in DMSO were further diluted in ethanol prior to applying to the reaction. To minimize variation, a control reaction was run in each assay prior to compound addition.

T2 sequence (P43490 whole entry): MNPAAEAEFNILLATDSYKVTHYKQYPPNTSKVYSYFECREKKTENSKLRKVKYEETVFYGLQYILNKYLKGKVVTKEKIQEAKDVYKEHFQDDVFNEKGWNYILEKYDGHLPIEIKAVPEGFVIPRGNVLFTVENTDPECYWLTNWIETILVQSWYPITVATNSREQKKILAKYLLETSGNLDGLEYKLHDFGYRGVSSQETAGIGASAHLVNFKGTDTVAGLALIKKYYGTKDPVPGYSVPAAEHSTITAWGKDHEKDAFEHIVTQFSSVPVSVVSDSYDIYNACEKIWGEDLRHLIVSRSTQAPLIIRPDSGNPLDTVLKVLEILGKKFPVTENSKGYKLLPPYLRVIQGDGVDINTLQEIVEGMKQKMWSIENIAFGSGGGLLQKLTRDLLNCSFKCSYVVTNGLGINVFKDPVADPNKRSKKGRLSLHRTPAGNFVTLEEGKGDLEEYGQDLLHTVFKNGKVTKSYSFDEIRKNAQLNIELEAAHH
T1 sequence (P43490 whole entry): as above

As for `Brc1ccc2c(c1)c1cc(Br)ccc1n2Cc1nnn[nH]1` [S233], the “Neurogenesis # BrdU+ Cells (X10E06)/mm3 Dentate Gyrus” value (“Neurogenesis # BrdU+ Cells” for short) in test [1] is listed as 7.3 (X10E06)/mm3. Besides, in test [2], the Binding competition is 0.9. The NAMPT activation in test [3] is 0.88.
The corresponding values for `Cl.NCC(F)Cn1c2ccc(Br)cc2c2cc(Br)ccc21` (centres unmarked) [S217] are 12.3 (X10E06)/mm3, 2.6 and 0.89.
For the compound `COc1cccc(S(=O)(=O)CC(F)Cn2c3ccc(Br)cc3c3cc(Br)ccc32)c1` (centres unmarked) [S81], in test [1], the “Neurogenesis # BrdU+ Cells” value was 12.6 (X10E06)/mm3. The Binding competition in test [2] turned out to be 1.2. For the same compound, the NAMPT activation in test [3] turned out to be 0.96.
Turning to `CC(C)(C)OC(=O)NCC(F)Cn1c2ccc(Br)cc2c2cc(Br)ccc21` (centres unmarked) [S208], in test [1], the “Neurogenesis # BrdU+ Cells” value is listed as 13.5 (X10E06)/mm3. Moreover, in test [2], the Binding competition came to 1.2. For the same compound, the NAMPT activation in test [3] is reported as 1.16.
As for `O=S(=O)(CC(F)Cn1c2ccc(Br)cc2c2cc(Br)ccc21)c1cccc(O)c1` (centres unmarked) [S101], the “Neurogenesis # BrdU+ Cells” value in test [1] was 9.9 (X10E06)/mm3. In test [2], the Binding competition is reported as 2.4. Besides, in test [3], the NAMPT activation turned out to be 1.12.
With `Cc1cc2c(cn1)[nH]c1ccc(Br)cc12` [S226], in test [1], the “Neurogenesis # BrdU+ Cells” value is on record as 12.8 (X10E06)/mm3. In addition, in test [2], the Binding competition is listed as 1.9. The NAMPT activation in test [3] is 0.96.
As for `COc1cccc(N(C)CC(F)Cn2c3ccc(Br)cc3c3cc(Br)ccc32)c1` (centres unmarked) [S11], the “Neurogenesis # BrdU+ Cells” value in test [1] was 12.8 (X10E06)/mm3. In addition, in test [2], the Binding competition was determined as 2.0. The NAMPT activation in test [3] amounted to 1.21.
On to `Brc1ccc2c(c1)c1cc(Br)ccc1n2CCCNc1ccccc1` [S33], for which, in test [1], the “Neurogenesis # BrdU+ Cells” value is listed as 11.6 (X10E06)/mm3. In addition, in test [2], the Binding competition came out at 2.8. Besides, in test [3], the NAMPT activation is given as 1.12.
For `COc1cccc(NC(SC)C(=O)Cn2c3ccc(Br)cc3c3cc(Br)ccc32)c1` (centres unmarked) [S4], the “Neurogenesis # BrdU+ Cells” value in test [1] is on record as 11.7 (X10E06)/mm3. For the same compound, the Binding competition in test [2] is 1.4. In addition, the NAMPT activation in test [3] was determined as 1.01.
For the compound `c1ccc2c(c1)CCc1ccccc1N2` [S212], the “Neurogenesis # BrdU+ Cells” value in test [1] is reported as 10.3 (X10E06)/mm3. Moreover, the Binding competition in test [2] is 1.0. The compound further displayed an NAMPT activation in test [3] of 1.04.
As for `COc1cccc(NCC(=O)Cn2c3ccc(Br)cc3c3cc(Br)ccc32)c1` [S3], the “Neurogenesis # BrdU+ Cells” value in test [1] is 9.2 (X10E06)/mm3. Besides, the Binding competition in test [2] is listed as 2.3. The compound also showed an NAMPT activation in test [3] of 1.06.
Consider `CS(=O)(=O)NC(=O)Cn1c2ccc(Br)cc2c2cc(Br)ccc21` [S232], for which the “Neurogenesis # BrdU+ Cells” value in test [1] is 8.4 (X10E06)/mm3. In addition, in test [2], the Binding competition worked out at 0.9. In test [3], this compound returned an NAMPT activation of 1.00.
Turning to `COc1cccc(N2CC(Cn3c4ccc(Br)cc4c4cc(Br)ccc43)OC2=O)c1` (centres unmarked) [S12], the “Neurogenesis # BrdU+ Cells” value in test [1] is recorded as 10.8 (X10E06)/mm3. The Binding competition in test [2] came out at 2.4. The same compound had an NAMPT activation in test [3] of 1.24.
The corresponding values for `O=C(Cn1c2ccc(Br)cc2c2cc(Br)ccc21)NS(=O)(=O)c1ccccc1` [S230] are 15.3 (X10E06)/mm3, 1.0 and 1.02.
Turning to `COc1cccc(NCC(Cn2c3ccc(Br)cc3c3cc(Br)ccc32)OC)c1` (centres unmarked) [S13], the “Neurogenesis # BrdU+ Cells” value in test [1] is recorded as 11.6 (X10E06)/mm3. Also, the Binding competition in test [2] is listed as 1.7. Moreover, in test [3], the NAMPT activation is 1.21.
On to `O=S(=O)(CC(F)Cn1c2ccc(Br)cc2c2cc(Br)ccc21)c1ccccc1` (centres unmarked) [S53], for which, in test [1], the “Neurogenesis # BrdU+ Cells” value is 17.1 (X10E06)/mm3. For the same compound, the Binding competition in test [2] is listed as 1.4. This compound displayed an NAMPT activation in test [3] of 1.05.
The corresponding values for `COCCOCCOc1ccc(NCC(F)Cn2c3ccc(Br)cc3c3cc(Br)ccc32)cc1` (centres unmarked) [S66] are 9.7 (X10E06)/mm3, 3.5 and 1.21.
As for `COc1cccc(NCC(F)(F)Cn2c3ccc(Br)cc3c3cc(Br)ccc32)c1` [S59], the “Neurogenesis # BrdU+ Cells” value in test [1] is on record as 10.7 (X10E06)/mm3. In test [2], the Binding competition was found to be 1.2. The compound further gave an NAMPT activation in test [3] of 1.02.
For `N#Cc1[nH]c2ccc(Br)cc2c1N` [S222] the same measures were 15.1 (X10E06)/mm3, 1.3 and 1.02.
Take `O=S(=O)(CC(F)Cn1c2ccc(Br)cc2c2cc(Br)ccc21)c1ccc(O)cc1` (centres unmarked) [S103]: in test [1], the “Neurogenesis # BrdU+ Cells” value was 7.0 (X10E06)/mm3. In test [2], the Binding competition was determined as 1.9. The NAMPT activation in test [3] came out at 0.97.
On to `COC(=O)NC(=O)Cn1c2ccc(Br)cc2c2cc(Br)ccc21` [S234], for which the “Neurogenesis # BrdU+ Cells” value in test [1] was 17.8 (X10E06)/mm3. Also, in test [2], the Binding competition is on record as 1.0. In test [3], the NAMPT activation was found to be 0.93.
With `NC(=O)Cn1c2ccc(Br)cc2c2cc(Br)ccc21` [S213], the “Neurogenesis # BrdU+ Cells” value in test [1] is 6.5 (X10E06)/mm3. In addition, the Binding competition in test [2] is 1.1. In test [3], this compound displayed an NAMPT activation of 1.00.
Consider `[N-]=[N+]=NCC(F)Cn1c2ccc(Br)cc2c2cc(Br)ccc21` (centres unmarked) [S189], for which the “Neurogenesis # BrdU+ Cells” value in test [1] is reported as 6.9 (X10E06)/mm3. Further, the Binding competition in test [2] is 3.6. In test [3], this compound displayed an NAMPT activation of 1.06.
For the compound `N#CCn1c2ccc(Br)cc2c2cc(Br)ccc21` [S235], the “Neurogenesis # BrdU+ Cells” value in test [1] is reported as 11.7 (X10E06)/mm3. In addition, in test [2], the Binding competition was determined as 1.8. The NAMPT activation in test [3] is 0.97.
With `COc1ccc(S(=O)(=O)CC(F)Cn2c3ccc(Br)cc3c3cc(Br)ccc32)cc1` (centres unmarked) [S83], the “Neurogenesis # BrdU+ Cells” value in test [1] is recorded as 12.5 (X10E06)/mm3. Besides, in test [2], the Binding competition is given as 1.0. Besides, in test [3], the NAMPT activation is on record as 1.01.
For `FC(F)(COc1ccccc1)Cn1c2ccc(Br)cc2c2cc(Br)ccc21` [S56] the same measures were 8.4 (X10E06)/mm3, 1.0 and 1.06.
In the case of `CN1C(=O)CN=C(c2ccc(Cl)cc2)c2cc(Cl)ccc21` [S203], in test [1], the “Neurogenesis # BrdU+ Cells” value was 10.8 (X10E06)/mm3. Also, the Binding competition in test [2] stood at 3.9. In test [3], this compound had an NAMPT activation of 1.00.
With `N#Cc1cc2c(cn1)[nH]c1ccc(Br)cc12` [S221], in test [1], the “Neurogenesis # BrdU+ Cells” value was 14.8 (X10E06)/mm3. Besides, in test [2], the Binding competition was found to be 2.9.
Turning to `OC(Cn1ccc2ccccc21)Cn1c2ccc(Br)cc2c2cc(Br)ccc21` (centres unmarked) [S22], the “Neurogenesis # BrdU+ Cells” value in test [1] was 6.7 (X10E06)/mm3. Also, in test [2], the Binding competition is given as 2.7.
For `O=C(O)CCc1c[nH]c2ccccc12` [S242] the same measures were 10.8 (X10E06)/mm3 and 1.2.
Take `CCOc1cccc(NCC(O)Cn2c3ccc(Br)cc3c3cc(Br)ccc32)c1` (centres unmarked) [S24]: in test [1], the “Neurogenesis # BrdU+ Cells” value is 8.0 (X10E06)/mm3. Further, the Binding competition in test [2] is recorded as 3.1.
